# Laboratory results reported in patent US20240124442A1, “TRICYCLIC-AMIDO-BICYCLIC PRMT5 INHIBITORS” (AMGEN INC., priority 2021, published 2024).
# Tests used:
# [1] = tested on: HCT116 MTAP null cells; test: HCT116 MTAP null cell line proliferation / cell viability (CellTiter-Glo, 6 days); assay type: cell-based; details: 144 h; HCT116 MTAP null cells, 6 days treatment, CellTiter-Glo cell viability; read-out: HCT-116 MTAP null IC50
# Procedure, shortened: (§1)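 Anti-proliferative IC50s were derived from CellTiter-Glo signal in HCT116 parent and MTAP-null cells after six days on compound. Serial dilutions reached top concentrations of 1, 10 or 50 μM, with DMSO-only wells as control.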
# [2] = tested on: HCT116 WT cells; test: HCT116 WT (parent) cell line proliferation / cell viability (CellTiter-Glo, 6 days); assay type: cell-based; details: Homo sapiens, HCT-116, 144 h, 6 days treatment
# Procedure, shortened: as §1
SMILES,IC50 [1],IC50 [2]
"Cc1nn(C)c2c1c(N)nc1cnc(C(=O)N(C)[C@@H]3COCc4nc(C(F)(F)F)ccc43)cc12 [Example 312, 4-amino-N,1,3-trimethyl-N-((5S)-2-(trifluoromethyl)-5,8-dihydro-6H-pyrano[3,4-b]-pyridin-5-yl)-1H-pyrazolo-[4,3-c][1,7]naphthyridine-8-carboxamide]",103 nM,9480 nM
"Cc1nn(C)c2c1c(N)nc1cc(F)c(C(=O)N(C)[C@@H]3COCc4cc(C(F)(F)F)ccc43)cc12 [Example 313, 4-amino-7-fluoro-N,1,3-trimeth-yl-N-((4S)-7-(trifluoromethyl)-3,4-dihydro-1H-2-benzopyran-4-yl)-1H-pyrazolo[4,3-c]quin-oline-8-carboxamide]",14 nM,523 nM
"Cc1nn(C)c2c1c(N)nc1cc(F)c(C(=O)N(C)[C@@H]3COCc4nc(C(F)(F)F)ccc43)cc12 [Example 314, 4-amino-7-fluoro-N,1,3-trimeth-yl-N-((5S)-2-(trifluoromethyl)-5,8-dihydro-6H-pyrano[3,4-b]-pyridin-5-yl)-1H-pyrazolo[4,3-c]quinoline-8-carboxamide]",41 nM,2630 nM
"CN(C(=O)c1ccc2nc(N)c(I)cc2c1)[C@@H]1COCc2nc(C(F)(F)F)ccc21 [Example 315, 2-amino-3-iodo-N-methyl-N-((5S)-2-(trifluoromethyl)-5,8-dihydro-6H-pyrano[3,4-b]pyridin-5-yl)-6-quinoline-carboxamide]",508 nM,13400 nM
"Cc1cc2nc(N)c3cnn(C)c3c2cc1C(=O)N(C)C1CCOCc2nc(C(F)(F)F)ccc21 [Example 316, 4-amino-N,1,7-trimethyl-N-(5R)-2-(trifluoromethyl)-5,6,7,9-tetrahydrooxepino[3,4-b]pyridin-5-yl)-1H-pyrazolo-[4,3-c]quinoline-8-carboxamide and 4-amino-N,1,7-trimethyl-N-((5S)-2-(trifluoromethyl)-5,6,7,9-tetrahydrooxepino[3,4-b]pyridin-5-yl)-1H-pyrazolo-[4,3-c]quinoline-8-carboxamide]",26 nM,1720 nM
"Nc1nc2cc(Cl)c(C(=O)N(C3CC3)[C@@H]3COc4cc(C(F)(F)F)ccc43)cc2c2c1COC2 [Example 442, (S)-4-amino-7-chloro-N-cyclopropyl-N-(6-(trifluoromethyl)-2,3-dihydrobenzofuran-3-yl)-1,3-dihydrofuro[3,4-c]quinoline-8-carboxamide]",9 nM,200 nM
"Nc1nc2cc(Cl)c(C(=O)N(C3CC3)[C@H]3COc4cc(C(F)(F)F)ccc43)cc2c2c1COC2 [Example 443, 4-amino-7-chloro-N-cyclopropyl-N-((3R)-6-(trifluoromethyl)-2,3-dihydro-1-benzofuran-3-yl)-1,3-dihydrofuro[3,4-c]quinoline-8-carboxamide]",433 nM,3460 nM
"CN(C(=O)c1ccc2nc(N)c3c(c2c1)COC3)[C@@H]1COc2cc(S(C)(=N)=O)ccc21 (stereo partly drawn) [Example 446, 4-amino-N-methyl-N-((3S)-6-(S-methylsulfonimidoyl)-2,3-dihydro-1-benzofuran-3-yl)-1,3-dihydrofuro[3,4-c]quinoline-8-carboxamide]",864 nM,36000 nM
"Nc1nc2ccc(C(=O)N(C3CC3)[C@@H]3COc4cc(C(F)(F)F)ccc43)cc2c2c1COC2 [Example 448, 4-amino-N-cyclopropyl-N-((3S)-6-(trifluoromethyl)-2,3-dihydro-1-benzofuran-3-yl)-1,3-dihydrofuro[3,4-c]quinoline-8-carboxamide]",58 nM,3710 nM
"CCN(C(=O)c1ccc2nc(N)c3c(c2c1)COC3)c1coc2cc(C(F)(F)F)ccc12 [Example 451, 4-amino-N-ethyl-N-(6-(trifluoromethyl)-1-benzofuran-3-yl)-1,3-dihydrofuro[3,4-c]quinoline-8-carboxamide]",5180 nM,9520 nM
"CN(C(=O)c1cc2c3c(c(N)nc2cn1)COC3)[C@@H]1COc2cc(F)c(F)cc21 [Example 452, 4-amino-N-((3S)-5,6-difluoro-2,3-dihydro-1-benzofuran-3-yl)-N-methyl-1,3-dihydrofuro[3,4-c][1,7]naphthyridine-8-carboxamide]",173 nM,13400 nM
"CN(C(=O)c1cc2c3c(c(N)nc2cn1)COC3)[C@@H]1COc2cc(-c3cnn(C(F)(F)F)c3)ccc21 [Example 457, 4-amino-N-methyl-N-((3S)-6-(1-(trifluoromethyl)-1H-pyrazol-4-yl)-2,3-dihydro-1-benzofuran-3-yl)-1,3-dihydrofuro[3,4-c][1,7]naphthyridine-8-carboxamide]",63 nM,3770 nM
"CN(C(=O)c1cc2c3c(c(N)nc2cc1F)COC3)[C@@H]1COc2cc(S(C)(=N)=O)ccc21 (stereo partly drawn) [Example 462, 4-amino-7-fluoro-N-methyl-N-((3S)-6-(S-methylsulfonimidoyl)-2,3-dihydro-1-benzofuran-3-yl)-1,3-dihydrofuro[3,4-c]quinoline-8-carboxamide]",237 nM,11700 nM
"C[C@H]1OCc2c1c(N)nc1cc(F)c(C(=O)N(C)[C@@H]3COc4cc(C(F)(F)F)ccc43)cc21 [Example 466, (3R)-4-amino-7-fluoro-N,3-dimethyl-N-((3S)-6-(trifluoromethyl)-2,3-dihydro-1-benzofuran-3-yl)-1,3-dihydrofuro[3,4-c]quinoline-8-carboxamide]",9 nM,245 nM
"C[C@H]1OCc2c1c(N)nc1cc(F)c(C(=O)N(C3CC3)[C@@H]3COc4cc(C(F)(F)F)ccc43)cc21 [Example 467, (3R)-4-amino-N-cyclopropyl-7-fluoro-3-methyl-N-((3S)-6-(trifluoromethyl)-2,3-dihydro-1-benzofuran-3-yl)-1,3-dihydrofuro[3,4-c]quinoline-8-carboxamide]",10 nM,418 nM
"CC(C)N(C(=O)c1cc2c3c(c(N)nc2cc1F)[C@@H](C)OC3)[C@@H]1COc2cc(C(F)(F)F)ccc21 [Example 468, (3R)-4-amino-7-fluoro-3-methyl-N-(2-propanyl)-N-((3S)-6-(trifluoromethyl)-2,3-dihydro-1-benzofuran-3-yl)-1,3-dihydrofuro[3,4-c]quinoline-8-carboxamide]",114 nM,2690 nM

# Second part, the compound after the results:
IC50 [1],IC50 [2],SMILES
2730 nM,19700 nM,"CC(C)N(C(=O)c1cc2c3c(c(N)nc2cc1F)[C@@H](C)OC3)[C@H]1COc2cc(C(F)(F)F)ccc21 [Example 469, (3R)-4-amino-7-fluoro-3-methyl-N-(2-propanyl)-N-((3R)-6-(trifluoromethyl)-2,3-dihydro-1-benzofuran-3-yl)-1,3-dihydrofuro[3,4-c]quinoline-8-carboxamide]"
27 nM,256 nM,"C[C@H]1OCc2c1c(N)nc1cc(F)c(C(=O)N(C3CCC3)[C@@H]3COc4cc(C(F)(F)F)ccc43)cc21 [Example 470, (3R)-4-amino-N-cyclobutyl-7-fluoro-3-methyl-N-((3S)-6-(trifluoromethyl)-2,3-dihydro-1-benzofuran-3-yl)-1,3-dihydrofuro[3,4-c]quinoline-8-carboxamide]"
574 nM,13900 nM,"C[C@H]1OCc2c1c(N)nc1cc(F)c(C(=O)N(C3CCC3)[C@H]3COc4cc(C(F)(F)F)ccc43)cc21 [Example 471, (3R)-4-amino-N-cyclobutyl-7-fluoro-3-methyl-N-((3R)-6-(trifluoromethyl)-2,3-dihydro-1-benzofuran-3-yl)-1,3-dihydrofuro[3,4-c]quinoline-8-carboxamide]"
15 nM,349 nM,"CN(C(=O)c1ccc2nc(N)c3cnn(C)c3c2c1)[C@@H]1COc2cc(C(F)(F)F)ccc21 [Example 473, 4-amino-N,1-dimethyl-N-((3S)-6-(trifluoromethyl)-2,3-dihydro-1-benzofuran-3-yl)-1H-pyrazolo[4,3-c]quinoline-8-carboxamide]"
8 nM,174 nM,"CN(C(=O)c1cc2c(cn1)nc(N)c1cnn(C)c12)[C@@H]1COc2cc(Cl)c(Cl)cc21 [Example 474, 4-amino-N-((3S)-5,6-dichloro-2,3-dihydro-1-benzofuran-3-yl)-N,1-dimethyl-1H-pyrazolo[4,3-c][1,7]naphthyridine-8-carboxamide]"
8 nM,199 nM,"CN(C(=O)c1cc2c(cc1F)nc(N)c1cnn(C)c12)[C@@H]1COc2cc(F)c(F)cc21 [Example 475, 4-amino-N-((3S)-5,6-difluoro-2,3-dihydro-1-benzofuran-3-yl)-7-fluoro-N,1-dimethyl-1H-pyrazolo[4,3-c]quinoline-8-carboxamide]"
6 nM,125 nM,"CN(C(=O)c1cc2c(cc1F)nc(N)c1cnn(C)c12)[C@@H]1COc2cc(Cl)c(Cl)cc21 [Example 476, 4-amino-N-((3S)-5,6-dichloro-2,3-dihydro-1-benzofuran-3-yl)-7-fluoro-N,1-dimethyl-1H-pyrazolo[4,3-c]quinoline-8-carboxamide]"
92 nM,2530 nM,"CN(C(=O)c1cc2c(cc1F)nc(N)c1cnn(C)c12)[C@H]1COc2cc(Cl)c(Cl)cc21 [Example 477, 4-amino-N-((3R)-5,6-dichloro-2,3-dihydro-1-benzofuran-3-yl)-7-fluoro-N,1-dimethyl-1H-pyrazolo[4,3-c]quinoline-8-carboxamide]"
5 nM,133 nM,"CN(C(=O)c1cc2c(cc1F)nc(N)c1cnn(C)c12)[C@@H]1COc2cc(OC(F)(F)F)ccc21 [Example 478, 4-amino-7-fluoro-N,1-dimethyl-N-((3S)-6-(trifluoromethoxy)-2,3-dihydro-1-benzofuran-3-yl)-1H-pyrazolo[4,3-c]quinoline-8-carboxamide]"
